In US20250339569A1, “CARBONIC ANHYDRASE IX LIGANDS” (priority 2021, published 2025):
Like-named read-outs stand apart in the source and are kept apart here.

Columns and labels:
human CAIX = human CAIX (Homo sapiens, UniProt Q16790); assay: In vitro SPR binding assay of DPI-4452, natLu-DPI-4452 and natGa-DPI-4452 to CAIX (anti-human Fc capture); set-up: purchased SinoBliological (Sino Biological) 10107-H02H
Experimental: Surface Plasmon Resonance (SPR) studies were performed on a Biacore™ T200 using a ligand capture approach. Basically, anti-human Fc antibodies were immobilized on the surface of a sensor chip and CAIX was captured on the functionalized surface via its Fc Tag.
Then, each compound was injected at increasing concentrations on the captured CAIX in order to measure the in real-time interaction of the compound to its target (i.e. the captured CAIX). The in real-time monitoring of the association and dissociation of the interaction gives access to the interaction kinetics parameters (i.e. the association and dissociation rate constants and the resulting affinity constants).
• A series S CM5 sensor chip was used (Cytiva). • All reagents used for the immobilization procedure were part of the Amine Coupling Kit, type 2 and/or the Human Antibody Capture Kit (Cytiva). The running buffer (HBS-EP+) was prepared by 10-fold dilution of the stock HBS-EP+ 10× solution (Cytiva). • Anti-human Fc antibodies stock solution (0.5 mg/mL in 0.15 M NaCl) was diluted in 10 mM sodium acetate pH 5.0 to a final concentration of 25 μg/mL directly into a plastic vial 7 mm. • Amine coupling reagents were transferred into plastic vials 7 mm as follow: • 95 μL of 0.4 M 1-ethyl-3-(3-dimethylaminopropyl)carbodiimide (EDC). • 95 μL of 0.1 M N-hydroxysuccinimide (NHS). • An empty plastic vial 7 mm was added in the Biacore™ sample rack for mixing. • 150 μL of 1 M ethamolamine-HCl, pH 8.5. • Plastic vials were closed with rubber caps and the sample rack was inserted into the Biacore™ T200 sample compartment. • The Biacore™ T200 Amine Wizard was used to immobilize the anti-Human Fc antibodies on the four flow-cells of a series S CM5 sensor chip simultaneously with defined contact time of 360 seconds and flow-rate of 5 μL/min. • The immobilization procedure was performed at 25° C., following Cytiva's recommendations, as described in Table 23.
This procedure allowed to reach immobilization levels between 6000 and 9000 RU of anti-human Fc antibodies on the sensor chip surface.
• CAIX (Sino Biological, 10107-H02H) stock solution was prepared from lyophilized material reconstituted with deionized water to a concentration of 0.25 μg/mL (3.69 μM), following the supplier recommendations. • CAIX working solution was obtained after dilution of CAIX stock solution with PBS-P+1×, 0.1% DMSO to a final concentration of 200 nM directly in a Biacore™ plastic vial.
• For each measurement, the raw surface plasmon resonance response (RU) was plotted against time (s) as a sensorgram using the Biacore™ T200 Control Software. • Raw data were corrected by double referencing with subtraction of the signal of both the reference flow-cell and the blank cycle. • The association and dissociation rate constants (ka and kd, respectively), as well as the dissociation constant KD and dissociation half-life t1/2 were determined from the corrected sensorgrams by fitting the data to a 1:1 Langmuir binding model with the Biacore™ T200 evaluation software.

[1] = Extended single-dose toxicity study including safety pharmacology endpoints, i.v. bolus (GLP); format: in vivo, beagle dogs; settings: for tlast: median; for half-life / clearance / AUC(0-t) / level at 5 min / Vd: beagle, plasma; for half-life: harmonic mean; for level at 5 min: read-out: C5 min; for Vd: read-out: Vss
Experimental: The following parameters and endpoints were evaluated: mortality, clinical observations, body weights, food consumption, body temperature, local reactions, ophthalmology, clinical pathology parameters (hematology, coagulation, clinical chemistry, and urinalysis), cardiovascular and respiratory safety pharmacology endpoints along with FOB evaluation, organ weights, and macroscopic and microscopic examinations, and TK parameters. The animals from subset A (3 males and 3 females per group) were sampled for toxicokinetics (TK) at: pre-dose, 5 min, 15 min, 30 min, 1 h, 2 h, 3 h and 6 h. Blood samples were collected in K2EDTA tubes. Plasma was prepared by centrifugation (2500 g for 10 minutes, +4° C.) within 1 hour after collection, and then frozen within 1 hour after centrifugation and stored at −80° C. […] Chromatographic separation was achieved using a Waters Acquity UPLC system with a Waters Acquity HSS T3 C18 2.1×50 mm, 1.8 μm column. Chromatography was conducted at 50° C. at a flow rate of 0.7 mL/min using a mobile phase consisting of A: 1% formic acid in acetonitrile, and B: 1% formic acid in water, according to the following linear gradient: 0 to 0.1 min: 90% B; 0.1 to 4.1 min: from 90% B to 74% B; 4.1 to 4.2 min: from 74% B to 5% B; 4.2 to 4.6 min: 5% B; 4.6 to 4.7 min: from 5% B to 90% B; 4.7-5.1 min; 90% B. Detection was performed using a Sciex API6600 TOF mass spectrometer. Toxicokinetic parameters were estimated from concentration-time data using Phoenix pharmacokinetic software (version 6.4, Certara L. P.). A non-compartmental approach consistent with the bolus intravenous injection was used for parameter estimation.
The test item treatment led to unaffected body weights, weight gains, and food intake. Likewise, no treatment-related abnormalities were reported during ophthalmic examinations, urinalysis, blood biochemistry, coagulation, and hematology investigations. There were no related organ weight changes and macroscopic and microscopic observations at early and late necropsies. Jacketed external telemetry was used to evaluate the potential cardiovascular and respiratory effects in the Subset B. Cardiorespiratory telemetry recordings were performed during the pre-test, Day 1 and 14. The electrocardiogram (ECG) parameters (heart rate, PQ interval duration, QRS complex duration, and QT interval duration) were collected continuously after dosing over 10-minute periods up to 6 h and over 15-minute periods up to 24 h. Miyazaki's QT correction method (Miyazaki, H. & Tagawa, M. Japanese Association for Laboratory Animal Science 2002, 51, 465-75) was used to correct the influence of heart rate. […] Arterial blood pressure parameters (systolic and diastolic blood pressure and mean arterial pressure) were measured continuously during consecutive 30-minute periods at pre-dose and for up to 6 h after dosing and over consecutive 60-minute periods up to 24 h after dosing. The respiratory rate was monitored on the pre-test, Day 1 and Day 14 at 0.5, 1, 2, 3, 4, 6, 8, 12, 16, 20, and 24 h. […] The potential effects on central nervous system parameters were evaluated under restrained and non-restrained conditions using a FOB in Subset A. Neurologic, autonomic, and behavioral investigations were performed in the pre-test, pre-dose, and 1 hour after dosing on Day 1.

[2] = dog, iv, 16 ug/kg, Female, 16 μg/kg single i.v. bolus, mean n = 3
[3] = dog, iv, 16 ug/kg, Male, 16 μg/kg single i.v. bolus, mean n = 3
[4] = dog, iv, 80 ug/kg, Female, 80 μg/kg single i.v. bolus, mean n = 3
[5] = dog, iv, 80 ug/kg, Male, 80 μg/kg single i.v. bolus, mean n = 3
[6] = dog, iv, 400 ug/kg, Female, 400 μg/kg single i.v. bolus, mean n = 3
[7] = dog, iv, 400 ug/kg, Male, 400 μg/kg single i.v. bolus, mean n = 3

In the case of `CC(C)C[C@@H]1NC(=O)[C@H](Cc2cccc(NC(=O)CCCS(N)(=O)=O)c2)NC(=O)[C@H](CC(=O)O)NC(=O)[C@H]2CCCN2C(=O)[C@H](CCC(=O)O)NC(=O)[C@@H](NC(=O)[C@H](CCC(N)=O)NC(=O)CN2CCN(C(=O)CN3CCN(CC(=O)O)CCN(CC(=O)O)CCN(CC(=O)O)CC3)CC2)CSCc2cccc(c2)CSC[C@@H](C(N)=O)NC(=O)[C@H](CO)NC(=O)[C@H](Cc2c[nH]c3ccccc23)NC(=O)[C@H]([C@@H](C)O)NC1=O` [DPI-4452, DOTA-PPAc-Gln-[Cys(3MeBn)-Glu-pro-Asp-Af3(Cpsu)-Leu-Thr-Trp-Ser-Cys]-NH2], the “affinity of binding to CAIX” value (human CAIX; SPR) was “subnanomolar affinity”, the t1/2 (human CAIX; SPR dissociation half-life) was 99 min and the mean dissociation half-life (human CAIX; SPR, 25°C) was 99 min. For the same compound, the “human equivalent dose of the NOAEL” value ([1]; 60 kg human) was 13.3 mg, the “central nervous system effects (FOB)” value ([1]; 1 hour after dosing, 16, 80, 400 μg/kg) was “No effects were observed on the central nervous system” and the tlast ([1]; Female, 16 μg/kg single i.v. bolus) was 1 h. It also gave a tlast ([1]; Female, 80 μg/kg single i.v. bolus) of 3 h, an AUClast ([1]; Female, 400 μg/kg single i.v. bolus, mean n = 3) of 771 ng·h/mL and a tlast ([1]; Female, 400 μg/kg single i.v. bolus) of 3 h. For the same compound, the tlast ([1]; Male, 16 μg/kg single i.v. bolus) was 1 h, the tlast ([1]; Male, 80 μg/kg single i.v. bolus) was 2 h and the AUClast ([1]; Male, 400 μg/kg single i.v. bolus, mean n = 3) was 854 ng·h/mL. For the same compound, the tlast ([1]; Male, 400 μg/kg single i.v. bolus) was 3 h, the tolerability ([1]; beagle dogs, single i.v. bolus up to 400 μg/kg) was “well tolerated” and the half-life ([1]; dog, iv, 16 ug/kg, Female, 16 μg/kg single i.v. bolus) was 14.3 min. The clearance [1, 2] was 21.2 mL/min/kg, the AUC(0-t) ([1]; dog, iv, 16 ug/kg, Female, 16 μg/kg single i.v. bolus, mean n = 3, read-out: AUClast) was 12.4 ng·h/mL and the level at 5 min [1, 2] was 37.7 ng/mL. For the same compound, the Vd [1, 2] was 0.3 L/kg, the half-life ([1]; dog, iv, 16 ug/kg, Male, 16 μg/kg single i.v. bolus) was 15.5 min and the clearance [1, 3] was 18.3 mL/min/kg. It also gave an AUC(0-t) ([1]; dog, iv, 16 ug/kg, Male, 16 μg/kg single i.v. bolus, mean n = 3, read-out: AUClast) of 14 ng·h/mL, a level at 5 min [1, 3] of 43.5 ng/mL and a Vd [1, 3] of 0.26 L/kg. The half-life ([1]; dog, iv, 80 ug/kg, Female, 80 μg/kg single i.v. bolus) was 23.2 min, the clearance [1, 4] was 9.27 mL/min/kg and the AUC(0-t) ([1]; dog, iv, 80 ug/kg, Female, 80 μg/kg single i.v. bolus, mean n = 3, read-out: AUClast) was 144 ng·h/mL. The level at 5 min [1, 4] was 346 ng/mL, the Vd [1, 4] was 0.21 L/kg and the half-life ([1]; dog, iv, 80 ug/kg, Male, 80 μg/kg single i.v. bolus) was 21.7 min. It also gave a clearance [1, 5] of 10.1 mL/min/kg, an AUC(0-t) ([1]; dog, iv, 80 ug/kg, Male, 80 μg/kg single i.v. bolus, mean n = 3, read-out: AUClast) of 132 ng·h/mL and a level at 5 min [1, 5] of 332 ng/mL. For the same compound, the Vd [1, 5] was 0.21 L/kg, the half-life ([1]; dog, iv, 400 ug/kg, Female, 400 μg/kg single i.v. bolus) was 21.8 min and the clearance [1, 6] was 8.63 mL/min/kg. It also gave a level at 5 min [1, 6] of 1760 ng/mL, a Vd [1, 6] of 0.19 L/kg and a half-life ([1]; dog, iv, 400 ug/kg, Male, 400 μg/kg single i.v. bolus) of 23.7 min. It also gave a clearance [1, 7] of 7.88 mL/min/kg, a level at 5 min [1, 7] of 1840 ng/mL and a Vd [1, 7] of 0.19 L/kg. For the same compound, the NOAEL at 14 days ([1]; both sexes, dog, in vivo, iv, beagle dogs, single i.v. bolus) was 0.4 mg/kg, the AUC(0-t) ([1]; female, dog, iv, 400 ug/kg, females, 400 μg/kg i.v., read-out: mean AUCtlast at the NOAEL) was 771 ng·h/mL and the “cardiovascular and respiratory safety pharmacology” value ([1]; jacketed external telemetry, 16, 80, 400 μg/kg) was “no related effect on cardiovascular or respiratory parameters”. For the same compound, the AUC(0-t) ([1]; male, dog, iv, 400 ug/kg, males, 400 μg/kg i.v., read-out: mean AUCtlast at the NOAEL) was 854 ng·h/mL and the “NOAEL cover of the predicted human dose” value ([1]; total ligand mass dose 500 μg/patient) was “more than 25 times”.
